Data: patent US12391648B2, “Pyridyloxy thioester derivative and preparation method therefor, herbicidal composition, and application” (Qingdao Kingagroot Chemical Compound Co., Ltd., priority 2018, dated 2025)

What was measured:
Experiment in all cases: Post-emergence test experiment (Table 3, 1000 g/ha)
Type in all cases: in vivo
Conditions in all cases: post-emergence spray, after 3 weeks, fresh weight inhibition
[1] = system: Leptochloa chinensis
Text: (§1) The activity level standard of harmful plants destruction (i. e. growth inhibition rate) is as follows: • Level 5: the growth inhibition rate is greater than 85%; • Level 4: the growth inhibition rate is equal to or greater than 60% and less than 85%; • Level 3: the growth inhibition rate is equal to or greater than 40% and less than 60%; • Level 2: the growth inhibition rate is equal to or greater than 20% and less than 40%; • Level 1: the growth inhibition rate is equal to or greater than 5% and less than 20%; • Level 0: the growth inhibition rate is less than 5%;
(§2) The above described growth inhibition rate is fresh weight inhibition rate.
(§3) Post-emergence test experiment: Monocotyledonous and dicotyledonous weed seeds and main crop seeds (i. e. wheat, corn, rice, soybean, cotton, oilseed, millet and sorghum.) were put into a plastic pot loaded with soil. Then covered with 0.5-2 cm soil, the seeds were allowed to grow in good greenhouse environment. The test plants were treated at 2-3 leaf stage 2 weeks after sowing. The test compounds of the invention were dissolved with acetone respectively, then added with tween-80, and using 1.5 liters per hectare of an emulsible concentrate of methyl oleate as a synergist, and diluted by certain amount of water to certain concentration. The solution was sprayed to the plants with a sprayer. Then the plants were cultured for 3 weeks in the greenhouse, and the experiment result of weed controlling effect after 3 weeks was listed in tables 3-4.

[2] = system: Galium spurium
Text: as §1, §2, §3

[3] = system: Setaria viridis
Text: as §1, §2, §3

[4] = system: Digitaria sanguinalis
Text: as §1, §2, §3

[5] = system: Abutilon theophrasti
Text: as §1, §2, §3

[6] = system: Monochoria vaginalis
Text: as §1, §2, §3

Row | Structure (SMILES) | Activity level (growth inhibition rate) Leptochloa chinensis [1] | Activity level (growth inhibition rate) Galium spurium [2] | Activity level (growth inhibition rate) Setaria viridis [3] | Activity level (growth inhibition rate) Digitaria sanguinalis [4] | Activity level (growth inhibition rate) Abutilon theophrasti [5] | Activity level (growth inhibition rate) Monochoria Vaginalis [6]
1 | CC(Oc1nc(F)c(Cl)c(N)c1Cl)C(=O)SCC(Cl)=C(Cl)Cl (stereo not drawn) [Compound 92] | 5 (Level 5: the growth inhibition rate is greater than 85%) | 5 (Level 5: the growth inhibition rate is greater than 85%) | 5 (Level 5: the growth inhibition rate is greater than 85%) | 5 (Level 5: the growth inhibition rate is greater than 85%) | 5 (Level 5: the growth inhibition rate is greater than 85%) | 5 (Level 5: the growth inhibition rate is greater than 85%)
2 | CCCc1c(OC(C)C(=O)SCC(F)(F)F)nc(Br)c(Cl)c1N (stereo not drawn) [Compound 18] | 5 (Level 5: the growth inhibition rate is greater than 85%) | 5 (Level 5: the growth inhibition rate is greater than 85%) | 5 (Level 5: the growth inhibition rate is greater than 85%) | 5 (Level 5: the growth inhibition rate is greater than 85%) | 5 (Level 5: the growth inhibition rate is greater than 85%) | 5 (Level 5: the growth inhibition rate is greater than 85%)
3 | CC(Oc1nc(F)c(Cl)c(N)c1Cl)C(=O)SC1CCC1 (stereo not drawn) [Compound 124] | 5 (Level 5: the growth inhibition rate is greater than 85%) | 5 (Level 5: the growth inhibition rate is greater than 85%) | 5 (Level 5: the growth inhibition rate is greater than 85%) | 5 (Level 5: the growth inhibition rate is greater than 85%) | 5 (Level 5: the growth inhibition rate is greater than 85%) | 5 (Level 5: the growth inhibition rate is greater than 85%)
4 | COCC(Oc1nc(F)c(Cl)c(N)c1Cl)C(=O)SC (stereo not drawn) [Compound 29] | – | 5 (Level 5: the growth inhibition rate is greater than 85%) | – | – | 5 (Level 5: the growth inhibition rate is greater than 85%) | 5 (Level 5: the growth inhibition rate is greater than 85%)
5 | CSC(=O)C(Oc1nc(F)c(Cl)c(N)c1Cl)C(F)(F)F (stereo not drawn) [Compound 41] | – | 5 (Level 5: the growth inhibition rate is greater than 85%) | – | – | 5 (Level 5: the growth inhibition rate is greater than 85%) | 5 (Level 5: the growth inhibition rate is greater than 85%)
6 | CSC(=O)C(Oc1nc(F)c(Cl)c(N)c1Cl)[N+](=O)[O-] (stereo not drawn) [Compound 49] | – | 5 (Level 5: the growth inhibition rate is greater than 85%) | – | – | 5 (Level 5: the growth inhibition rate is greater than 85%) | 5 (Level 5: the growth inhibition rate is greater than 85%)
7 | CSC(=O)C(Oc1nc(F)c(Cl)c(N)c1Cl)C(C)C (stereo not drawn) [Compound 27] | – | 5 (Level 5: the growth inhibition rate is greater than 85%) | – | – | 5 (Level 5: the growth inhibition rate is greater than 85%) | 5 (Level 5: the growth inhibition rate is greater than 85%)
8 | CSC(=O)C(Oc1nc(F)c(Cl)c(N)c1Cl)c1cccnc1 (stereo not drawn) [Compound 63] | – | 5 (Level 5: the growth inhibition rate is greater than 85%) | – | – | 5 (Level 5: the growth inhibition rate is greater than 85%) | 5 (Level 5: the growth inhibition rate is greater than 85%)
9 | CSC(=O)C(Oc1nc(F)c(Cl)c(N)c1Cl)C1CC1 (stereo not drawn) [Compound 28] | – | 5 (Level 5: the growth inhibition rate is greater than 85%) | – | – | 5 (Level 5: the growth inhibition rate is greater than 85%) | 5 (Level 5: the growth inhibition rate is greater than 85%)
10 | CSC(=O)C(Cc1ccccc1)Oc1nc(F)c(Cl)c(N)c1Cl (stereo not drawn) [Compound 126] | – | 5 (Level 5: the growth inhibition rate is greater than 85%) | – | – | 5 (Level 5: the growth inhibition rate is greater than 85%) | 5 (Level 5: the growth inhibition rate is greater than 85%)
11 | C=CC(Oc1nc(F)c(Cl)c(N)c1Cl)C(=O)SC (stereo not drawn) [Compound 32] | – | 5 (Level 5: the growth inhibition rate is greater than 85%) | – | – | 5 (Level 5: the growth inhibition rate is greater than 85%) | 5 (Level 5: the growth inhibition rate is greater than 85%)
12 | CSC(=O)C(C#N)Oc1nc(F)c(Cl)c(N)c1Cl (stereo not drawn) [Compound 43] | – | 5 (Level 5: the growth inhibition rate is greater than 85%) | – | – | 5 (Level 5: the growth inhibition rate is greater than 85%) | 5 (Level 5: the growth inhibition rate is greater than 85%)
13 | CCCC(Oc1nc(F)c(Cl)c(N)c1Cl)C(=O)SC (stereo not drawn) [Compound 26] | – | 5 (Level 5: the growth inhibition rate is greater than 85%) | – | – | 5 (Level 5: the growth inhibition rate is greater than 85%) | 5 (Level 5: the growth inhibition rate is greater than 85%)
14 | C#CC(Oc1nc(F)c(Cl)c(N)c1Cl)C(=O)SC (stereo not drawn) [Compound 33] | – | 5 (Level 5: the growth inhibition rate is greater than 85%) | – | – | 5 (Level 5: the growth inhibition rate is greater than 85%) | 5 (Level 5: the growth inhibition rate is greater than 85%)
15 | CSC(=O)C(Oc1nc(F)c(Cl)c(N)c1Cl)c1cncnc1 (stereo not drawn) [Compound 64] | – | 5 (Level 5: the growth inhibition rate is greater than 85%) | – | – | 5 (Level 5: the growth inhibition rate is greater than 85%) | 5 (Level 5: the growth inhibition rate is greater than 85%)
16 | CSC(=O)C(Oc1nc(F)c(Cl)c(N)c1Cl)c1ccc2ccccc2c1 (stereo not drawn) [Compound 65] | – | 5 (Level 5: the growth inhibition rate is greater than 85%) | – | – | 5 (Level 5: the growth inhibition rate is greater than 85%) | 5 (Level 5: the growth inhibition rate is greater than 85%)
17 | CSC(=O)C(Oc1nc(F)c(Cl)c(N)c1Cl)c1cnn(C(F)F)c1 (stereo not drawn) [Compound 58] | – | 5 (Level 5: the growth inhibition rate is greater than 85%) | – | – | 5 (Level 5: the growth inhibition rate is greater than 85%) | 5 (Level 5: the growth inhibition rate is greater than 85%)
18 | CSC(=O)C(CF)Oc1nc(F)c(Cl)c(N)c1Cl (stereo not drawn) [Compound 38] | – | 5 (Level 5: the growth inhibition rate is greater than 85%) | – | – | 5 (Level 5: the growth inhibition rate is greater than 85%) | 5 (Level 5: the growth inhibition rate is greater than 85%)
19 | CSC(=O)C(C=O)Oc1nc(F)c(Cl)c(N)c1Cl (stereo not drawn) [Compound 51] | – | 5 (Level 5: the growth inhibition rate is greater than 85%) | – | – | 5 (Level 5: the growth inhibition rate is greater than 85%) | 5 (Level 5: the growth inhibition rate is greater than 85%)
20 | CSC(=O)C(Oc1nc(F)c(Cl)c(N)c1Cl)SC (stereo not drawn) [Compound 47] | – | 5 (Level 5: the growth inhibition rate is greater than 85%) | – | – | 5 (Level 5: the growth inhibition rate is greater than 85%) | 5 (Level 5: the growth inhibition rate is greater than 85%)
21 | COC(=O)C(Oc1nc(F)c(Cl)c(N)c1Cl)C(=O)SC (stereo not drawn) [Compound 52] | – | 5 (Level 5: the growth inhibition rate is greater than 85%) | – | – | 5 (Level 5: the growth inhibition rate is greater than 85%) | 5 (Level 5: the growth inhibition rate is greater than 85%)
